Laboratory results reported in BindingDB's records for doi:10.1021/jm00148a012 (1985).

Target: Gamma-aminobutyric acid type B receptor subunit 1/2 (UniProt Q9Z0U4+O88871)
Experiment: Displacement of [3H]baclofen from Gamma-aminobutyric acid type B receptor in rat brain membranes

Sequence of Gamma-aminobutyric acid type B receptor subunit 1/2 (Q9Z0U4 whole entry): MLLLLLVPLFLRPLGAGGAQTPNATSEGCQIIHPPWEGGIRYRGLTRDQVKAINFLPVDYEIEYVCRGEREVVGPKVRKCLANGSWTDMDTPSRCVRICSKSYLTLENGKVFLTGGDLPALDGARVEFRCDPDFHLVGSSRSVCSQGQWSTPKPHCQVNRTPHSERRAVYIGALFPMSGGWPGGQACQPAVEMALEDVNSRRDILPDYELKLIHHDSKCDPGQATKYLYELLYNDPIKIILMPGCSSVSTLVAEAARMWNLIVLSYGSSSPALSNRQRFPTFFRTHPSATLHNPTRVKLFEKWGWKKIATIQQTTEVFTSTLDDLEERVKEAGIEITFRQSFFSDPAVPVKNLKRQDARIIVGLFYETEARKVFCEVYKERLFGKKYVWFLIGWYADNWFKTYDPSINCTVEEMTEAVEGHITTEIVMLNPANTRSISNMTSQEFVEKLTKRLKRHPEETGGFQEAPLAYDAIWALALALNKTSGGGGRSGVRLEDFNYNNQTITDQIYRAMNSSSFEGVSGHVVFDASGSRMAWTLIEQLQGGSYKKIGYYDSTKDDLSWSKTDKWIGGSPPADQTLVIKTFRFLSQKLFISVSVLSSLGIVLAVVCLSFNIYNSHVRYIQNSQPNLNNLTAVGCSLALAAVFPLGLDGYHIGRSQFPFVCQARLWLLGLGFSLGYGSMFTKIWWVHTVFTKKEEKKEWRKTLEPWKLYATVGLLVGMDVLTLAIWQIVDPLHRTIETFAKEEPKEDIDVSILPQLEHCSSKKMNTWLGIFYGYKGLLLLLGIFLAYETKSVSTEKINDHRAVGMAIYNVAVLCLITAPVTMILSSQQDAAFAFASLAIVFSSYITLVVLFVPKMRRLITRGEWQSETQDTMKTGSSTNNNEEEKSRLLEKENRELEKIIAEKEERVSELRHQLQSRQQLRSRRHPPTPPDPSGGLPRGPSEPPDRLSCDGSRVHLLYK
Sequence of Gamma-aminobutyric acid type B receptor subunit 1/2 (O88871 whole entry): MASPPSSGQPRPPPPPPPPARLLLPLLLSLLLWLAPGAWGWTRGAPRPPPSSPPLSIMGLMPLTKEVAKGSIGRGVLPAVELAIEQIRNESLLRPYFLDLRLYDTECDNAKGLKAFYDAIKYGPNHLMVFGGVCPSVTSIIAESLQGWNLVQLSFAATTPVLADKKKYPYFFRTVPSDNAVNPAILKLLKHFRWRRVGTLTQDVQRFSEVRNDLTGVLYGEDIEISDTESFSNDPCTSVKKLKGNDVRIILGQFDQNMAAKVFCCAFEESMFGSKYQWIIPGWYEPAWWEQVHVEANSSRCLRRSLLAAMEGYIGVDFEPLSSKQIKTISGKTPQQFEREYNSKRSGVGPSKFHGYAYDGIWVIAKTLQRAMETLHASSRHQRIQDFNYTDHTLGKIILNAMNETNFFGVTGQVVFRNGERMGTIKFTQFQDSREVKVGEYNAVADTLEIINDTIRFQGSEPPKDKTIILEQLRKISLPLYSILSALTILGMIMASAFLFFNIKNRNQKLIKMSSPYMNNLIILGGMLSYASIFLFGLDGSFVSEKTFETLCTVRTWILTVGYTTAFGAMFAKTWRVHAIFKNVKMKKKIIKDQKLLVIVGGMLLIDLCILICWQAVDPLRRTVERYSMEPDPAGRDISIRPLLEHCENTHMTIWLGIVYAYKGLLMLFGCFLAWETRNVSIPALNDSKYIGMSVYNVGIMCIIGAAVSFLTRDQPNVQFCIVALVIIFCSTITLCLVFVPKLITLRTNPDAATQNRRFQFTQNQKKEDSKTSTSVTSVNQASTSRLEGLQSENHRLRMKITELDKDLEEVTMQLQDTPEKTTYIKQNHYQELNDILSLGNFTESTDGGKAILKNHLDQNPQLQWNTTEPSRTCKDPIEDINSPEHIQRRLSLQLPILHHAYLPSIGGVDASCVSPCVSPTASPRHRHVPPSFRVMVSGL

- IC50: > 100 µM
SMILES: NCC1CC(=O)CC(=O)C1
